Source: patent US8637038B2, “Methods for inhibiting allograft rejection” (Rigel Pharmaceuticals, Inc., priority 2011, dated 2014)
Entries after “also recorded” stand apart in the source; their conditions may differ.

Legend:
VEGFR2 = molecular target: T1, VEGFR2 (Homo sapiens, UniProt P35968); experiment: VEGF HUVEC phospho-VEGFR2; format: cell-based
T1 construct: endogenous in cells; host or cells: HUVEC (human umbilical vein endothelial cells)
Experimental: Growth factor-dependent protein phosphorylation was detected in HeLa cells by staining permeabilized cells with phospho-specific antibodies and quantified by chemiluminescence (Luminator, Wallac Multilabel Counter; Perkin Elmer). Akt phosphorylation was measured following insulin stimulation and EGFR phosphorylation was measured following EGF stimulation (Phospho-AKT, Cell signaling technology, Danvers, Mass.; 1 μM Insulin, Millipore, Billerica, Mass.; Phospho-EGFR, tyr1173, clone 53A3, Cell Signaling Technology; 200 ng/ml recombinant human EGF, PeproTech, Hamburg, Germany). Human umbilical vein endothelial cells (HUVECs) were stimulated with VEGF and VEGFR2 phosphorylation was assessed by ELISA (100 ng/ml VEGF165, R&D Systems; Rabbit anti-phospho-VEGFR2 mAb, Cell Signaling Technology).

[1] = system: Lew recipients of heterotopic BN heart transplants; experiment: Five-day heart allograft study: CD3+/CD68+ immunohistochemistry; format: in vivo, rat; settings: for CD68+ cell infiltration compared to Tac HD group / CD68+ cells compared to no medication group: HD groups, five days, p<0.001; for CD68+ and CD3+ cell infiltration compared to Tac LD group: LD groups (Compound I 15 mg/kg BID, Compound III 5 mg/kg BID), p<0.05
Source text: Male Brown Norway (BN) and Lewis (Lew) rats weighing 350 g were purchased from Harlan (Indianapolis, Ind.) and were housed under conventional conditions. All animals were fed standard rat chow and water ad libitum and received humane care in compliance with the Principles of Laboratory Animal Care formulated by the National Society for Medical Research and the Guide for the care and Use of Laboratory Animals published by the National Institutes of Health (National Institutes of Health publication No. 85-23, revised 1985). Allogeneic (BN-to-Lew) and syngeneic (Lew-to-Lew) heterotopic heart transplantations were performed as described previously (Ono et al., J. Thorac. Cardiovasc. Surg. 57:225-229, 1969). In brief, rats were anaesthetized using 2% isoflurane. The donor received an intravenous bolus of 500 I.U. heparin. Cardiac arrest was achieved using 20 ml Bretschneider solution (Custodiol, Dr. F. Koehler Chemie, Bensheim, Germany). […] Heart-beating score was assessed directly after transplantation for each animal from score 0 (no palpable contraction) to 4 (strong and regular contraction). Only animals with beating scores of 4 were included into the study.
Compound I and Compound III were provided by Rigel (South San Francisco, Calif.) and Tacrolimus was provided by Astellas (Munich, Germany). All drugs were administrated orally each in two different concentrations: Compound I LD (15 mg/kg BID; n=6) and HD (60 mg/kg BID; n=6); Compound III LD (5 mg/kg BID; n=6) and HD (20 mg/kg BID; n=6); Tac LD (1 mg/kg QD; n=6) and HD (4 mg/kg QD; n=6). Administration of all drugs was performed every day at the same time points. Tacrolimus was applied only once a day (QD) every 24 hours. During administration of Compound I (BID) and Compound III (BID) a 12 hour pause was kept in between each drug application.
Lew recipients of heterotopic BN heart transplants were randomly assigned to their group. Animals were either left untreated (groups 1 and 2; see Table 1,5-day study) or received their group specific medication (groups 3-8; see Table 1,5-day study) by oral application. An untreated syngeneic transplant group Lew-Lew was generated as control.
Paraffin-embedded tissue sections were deparaffinized and rehydrated. Sections were incubated with protein blocking solution (ZytoChem Plus (AP) Polymer Kit; Zytomed Systems GmbH, Berlin, Germany) to prevent background staining. After antigen retrieval, specific antibodies against rat CD68 and CD3 (Serotec, Raleigh, N.C.) were applied to identify macrophages and lymphocytes, respectively, and visualized via alkaline phosphatase and new fuchsin substrate reaction (Zytomed System GmbH; Dako, Carpinteria, Calif.). Sections were counterstained by H+E (Waldeck). After overnight incubation with primary antibody solution and subsequent washing, enhancement reagent (ZytoChem) was applied, followed by enzymatic reaction of alkaline phosphatase induced by New Fuchsin Substrate System (Dako).
Inflammatory cell densities within the myocardium were assessed with the Leica QWin software (Leica Microsystems GmbH, Wetzlar, Germany) and expressed as cells/high-power field (HPF). Histological analyses of all stainings were done by a pathologist.

[2] = system: Lew recipients of heterotopic BN heart transplants; experiment: Five-day heart allograft study: intragraft cytokines (Quantibody arrays); format: in vivo, rat; settings: HD groups; for intragraft IFN-γ release / intragraft IL-10 release compared to no medication group: five days; for intragraft IFN-γ release / intragraft IL-10 release compared to no medication group / intragraft IL-10 release compared to Tac HD treatment: p<0.05
Experimental: Compound I and Compound III were provided by Rigel (South San Francisco, Calif.) and Tacrolimus was provided by Astellas (Munich, Germany). All drugs were administrated orally each in two different concentrations: Compound I LD (15 mg/kg BID; n=6) and HD (60 mg/kg BID; n=6); […] Administration of all drugs was performed every day at the same time points. Tacrolimus was applied only once a day (QD) every 24 hours. During administration of Compound I (BID) and Compound III (BID) a 12 hour pause was kept in between each drug application. Lew recipients of heterotopic BN heart transplants were randomly assigned to their group. […] An untreated syngeneic transplant group Lew-Lew was generated as control. […] Hearts were equally homogenized in 400 μl RIPA buffer (Sigma-Aldrich, St. Louis, Mo.). The protein content within the supernatant was quantified using the colorimetric BCA protein assay (Thermo Fisher Scientific, Rockford, Ill.) at 562 nm wavelength, according to the manufacturer's protocol. A total of 300 μg protein per Quantibody® array glass chip was used to quantitatively measure the intracellular cytokine content by ELISA in quadruplicates (Human cytokine array 1, Raybiotech). All values were normalized to the standard curve. Glass chip analysis was performed by Raybiotech.

T1 sequence (P35968 20-1356): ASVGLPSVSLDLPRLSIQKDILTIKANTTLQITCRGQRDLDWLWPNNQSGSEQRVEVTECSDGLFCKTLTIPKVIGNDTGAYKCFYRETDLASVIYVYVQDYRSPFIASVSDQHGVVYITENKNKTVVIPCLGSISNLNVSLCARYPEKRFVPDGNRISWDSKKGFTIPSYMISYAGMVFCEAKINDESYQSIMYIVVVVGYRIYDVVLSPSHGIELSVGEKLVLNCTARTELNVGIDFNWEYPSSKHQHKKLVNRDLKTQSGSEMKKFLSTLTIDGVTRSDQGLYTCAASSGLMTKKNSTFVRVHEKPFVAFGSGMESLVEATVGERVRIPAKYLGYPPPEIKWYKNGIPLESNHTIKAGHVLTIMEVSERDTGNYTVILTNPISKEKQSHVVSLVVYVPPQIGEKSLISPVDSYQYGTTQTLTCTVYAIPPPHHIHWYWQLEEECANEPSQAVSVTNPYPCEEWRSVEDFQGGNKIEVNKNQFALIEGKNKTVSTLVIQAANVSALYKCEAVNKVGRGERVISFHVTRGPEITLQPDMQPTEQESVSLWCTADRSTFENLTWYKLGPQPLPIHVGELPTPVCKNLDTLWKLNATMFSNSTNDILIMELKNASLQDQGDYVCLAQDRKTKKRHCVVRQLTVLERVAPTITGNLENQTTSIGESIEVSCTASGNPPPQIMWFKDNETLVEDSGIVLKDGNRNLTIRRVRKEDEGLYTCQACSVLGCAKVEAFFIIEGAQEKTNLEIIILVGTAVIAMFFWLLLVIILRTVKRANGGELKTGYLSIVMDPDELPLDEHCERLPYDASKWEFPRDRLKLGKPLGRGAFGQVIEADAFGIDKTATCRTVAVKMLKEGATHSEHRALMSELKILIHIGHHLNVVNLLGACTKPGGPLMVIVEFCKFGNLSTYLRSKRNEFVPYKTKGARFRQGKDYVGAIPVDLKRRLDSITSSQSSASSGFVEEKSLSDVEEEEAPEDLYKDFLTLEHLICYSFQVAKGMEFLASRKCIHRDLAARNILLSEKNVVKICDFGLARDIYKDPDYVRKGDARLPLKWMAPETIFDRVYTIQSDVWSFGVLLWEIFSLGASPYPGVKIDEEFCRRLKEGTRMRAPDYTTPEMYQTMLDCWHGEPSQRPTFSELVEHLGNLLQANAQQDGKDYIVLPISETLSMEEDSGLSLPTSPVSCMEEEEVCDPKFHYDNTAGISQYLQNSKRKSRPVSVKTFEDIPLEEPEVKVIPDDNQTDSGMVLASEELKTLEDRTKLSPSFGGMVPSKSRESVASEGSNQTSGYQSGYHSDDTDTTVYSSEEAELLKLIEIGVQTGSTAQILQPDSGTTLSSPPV

Compound | EC50 (VEGFR2) | CD68+ cell infiltration compared to Tac HD group [1] | CD68+ cells compared to no medication group [1] | CD68+ and CD3+ cell infiltration compared to Tac LD group [1] | intragraft MCP-1 release compared to Tac HD treatment [2] | intragraft IFN-γ release [2] | intragraft IL-10 release compared to no medication group [2] | intragraft IL-10 release compared to Tac HD treatment [2]
COc1cc(Nc2ncc(C)c(Nc3ccc4oc(=O)[nH]c4c3)n2)cc(C)c1F [Compound I, 5-(2-(4-fluoro-3-methoxy-5-methylphenylamino)-5-methylpyrimidin-4-ylamino)benzo[d]oxazol-2(3H)-one] | 17.8 ± 3.87 µM | significantly less | significantly reduced | less CD68+ and CD3+ cell infiltration | lower mean values | significantly less; also recorded: significant reduction | significantly reduced; also recorded: significant reduction | significantly less IL-10 release
COc1cc(Nc2ncc(C)c(Nc3ccc4oc(=O)[nH]c4c3)n2)cc(C)c1C [Compound III, 5-(2-(3-methoxy-4,5-dimethylphenylamino)-5-methylpyrimidin-4-ylamino)benzol[d]oxazol-2-(3H)-one] | 29.3 ± 14.3 µM | significantly less | significantly reduced | less CD68+ and CD3+ cell infiltration | lower mean values | significantly less; also recorded: significant reduction | significantly reduced; also recorded: significant reduction | significantly less IL-10 release
